Read-outs that look alike come from different tables or passages of the source.
How the values were obtained:
[1] = test system: cardiomyocytes derived from hiPSCs from a LQTS3 patient; conditions: for LQT-Cess. Dose: deuterated vs non-deuterated
[2] = test system: normal human induced pluripotent stem cell (hiPSC) cardiomyocyte; conditions: for WT-Prolong. Dose: 'No AP' wraps to 'No AP Prolong.'; for WT-Cess. Dose / WT-EC50 (μM)-Prolong.: deuterated vs non-deuterated; for WT-EC50 (μM)-Prolong.: 'No AP' wraps to 'No AP prolongation'
Human FMO3 = Human FMO3 (Homo sapiens, UniProt P31513); conditions: 15 μg enzyme/incubation; 30 mins, 37° C.; nmol metabolism/incubation
Human FMO1 = molecular target: T1, Human FMO1 (Homo sapiens, UniProt Q01740); experiment: Metabolism with human FMO1 (nmol metabolism/incubation); conditions: 15 μg enzyme/incubation; 30 mins, 37° C.; nmol metabolism/incubation
T1 sequence (Q01740 1-532): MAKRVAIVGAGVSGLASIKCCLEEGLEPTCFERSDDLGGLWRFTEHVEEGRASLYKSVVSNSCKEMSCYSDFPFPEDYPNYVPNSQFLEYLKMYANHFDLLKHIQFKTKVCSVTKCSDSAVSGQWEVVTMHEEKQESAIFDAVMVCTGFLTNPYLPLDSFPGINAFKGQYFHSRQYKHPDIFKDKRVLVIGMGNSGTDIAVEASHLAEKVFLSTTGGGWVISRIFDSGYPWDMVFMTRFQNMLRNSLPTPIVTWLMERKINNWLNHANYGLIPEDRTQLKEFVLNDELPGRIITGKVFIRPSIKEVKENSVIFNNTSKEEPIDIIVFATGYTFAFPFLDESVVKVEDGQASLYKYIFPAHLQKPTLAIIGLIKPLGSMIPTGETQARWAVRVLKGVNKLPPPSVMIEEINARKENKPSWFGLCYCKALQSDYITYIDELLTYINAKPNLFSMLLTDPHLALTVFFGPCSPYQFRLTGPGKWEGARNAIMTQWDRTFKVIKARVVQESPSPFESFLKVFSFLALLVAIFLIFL

CYP3A4 [3] = molecular target: T2, CYP3A4 (Homo sapiens, UniProt P08684); experiment: Metabolism with highly purified CYP3A4 (HPLC); conditions: 3 pmol enzyme/incubation; 30 mins, 37° C.; nmol metabolism/incubation
[4] = Metabolism in human hepatic S9; conditions: 0.5 mg of protein
Protocol: (§1) A typical incubation contained rat, mouse, dog or human liver microsomes (0.4-0.5 mg of protein), 100 mM potassium phosphate buffer (pH7.4), 50 μM test compound, an NADPH-generating system consisting of 0.5 mM NADP^+, 0.5 mM glucose-6-phosphate, 1 IU/mL glucose-6-phosphate dehydrogenase, 1 mg/mL diethylenetriaminepentaaceticacid (DETAPAC), and 3 mM MgCl2 in a final incubation volume of 0.25 mL. […] After centrifugation at 3000 rpm for 5 min, the organic fraction was collected, the solvent was removed with a stream of argon and the residue was reconstituted in 125 μL of MeOH and 125 μL H2O, mixed thoroughly, centrifuged at 13,000 rpm for 5 min and analyzed by high performance liquid chromatography. Samples were run on a Hitachi D-7000 HPLC system using a L-7100 analytical pump, L-7400 UV-Visible variable wavelength detector, and L-7600 automatic sample injector. […] Disappearance of the analyte was monitored over time. A plot of the area under the curve for the normalized analyte versus time afforded the half-life values and kapp.
(§2) Microsomes contain CYPs and FMO metabolic enzymes. S9 contains soluble enzymes (i.e., aldehyde oxidase, MAO, etc.).

[5] = Metabolism in rat hepatic S9; assay type: in vitro ADME; conditions: 0.5 mg of protein
Protocol: as §1, §2

[6] = Metabolism in dog hepatic S9; assay type: in vitro ADME; conditions: 0.5 mg of protein
Protocol: as §1, §2

[7] = Metabolism in mouse hepatic S9
Protocol: as §1, §2

[8] = molecular target: T3, hERG potassium channel (IKr) (Homo sapiens, UniProt Q12809); experiment: Automated patch clamp, hERG (IKr) expressed in CHO cells; conditions: hERG (IKr) IC50, CHO cells
[9] = molecular target: T3, hERG potassium channel (IKr)
Male BALBc mice = conditions: mice, i.p.
From the text: Male BALBc mice (20-22 g) were used throughout these studies. The animals were maintained in a temperature-controlled room with 12-hr periods of light and darkness and had continuous access to water and animal food. […] Groups contained 2-4 animals.

[10] = Solubility (water; 10:30:60% DMSO:PEG400:water vehicle); assay type: physicochemical
[11] = molecular target: Nav1.5 sodium channel, peak current (INaP) (Homo sapiens, UniProt Q14524, form not given); experiment: in vitro; conditions: Peak Na+ (INaP) IC50
How it was run: (§3)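 Conventional whole-cell patch clamp was performed on HEK293 cells transfected with Nav1.5 and plated on 0.1% gelatin-coated dishes. Values were reported as IC50 ± STD.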

[12] = molecular target: Nav1.5 sodium channel transfected into HEK293 cells (Homo sapiens, UniProt Q14524); experiment: Patch clamp electrophysiology, peak (INaP) and late (INaL) sodium current in transfected cells
How it was run: as §3

[13] = Metabolic stability in mouse liver microsomes; assay type: in vitro ADME; conditions: mouse, liver microsomes, pH 7.4; 50 μM, NADPH-generating system, 37° C.; read-out: Liver Microsomes t1/2 Mouse
Protocol: as §1

[14] = Metabolic stability in human liver microsomes; assay type: in vitro ADME; conditions: human, liver microsomes, pH 7.4, 50 μM, NADPH-generating system, 37° C.; read-out: Liver Microsomes t1/2 Human
Protocol: as §1

[15] = Metabolic stability in dog liver microsomes; assay type: in vitro ADME; conditions: dog, liver microsomes, pH 7.4; 50 μM, NADPH-generating system, 37° C.; read-out: Liver Microsomes t1/2 Dog
Protocol: as §1

[16] = Metabolic stability in rat liver microsomes; assay type: in vitro ADME; conditions: rat, liver microsomes, pH 7.4; 50 μM, NADPH-generating system, 37° C.; read-out: Liver Microsomes t1/2 Rat
Protocol: as §1

CYP3A5 = CYP3A5 (Homo sapiens, UniProt P20815); experiment: Metabolism with highly purified CYP3A5 (HPLC); conditions: human, 50 min
Protocol: as §1
(§4) Accordingly, we examined the metabolism of leads with highly purified CYPs with an HPLC method (Example 8).

CYP3A4 [17] = molecular target: T2, CYP3A4; conditions: 50 min
CYP2D6 = CYP2D6 (Homo sapiens, UniProt P10635); experiment: Metabolism with highly purified CYP2D6 (HPLC); conditions: human, 50 min
Protocol: as §1, §4

[18] = 'No AP' wraps to 'No AP shortening'

Sequence of CYP2D6 (P10635 whole entry): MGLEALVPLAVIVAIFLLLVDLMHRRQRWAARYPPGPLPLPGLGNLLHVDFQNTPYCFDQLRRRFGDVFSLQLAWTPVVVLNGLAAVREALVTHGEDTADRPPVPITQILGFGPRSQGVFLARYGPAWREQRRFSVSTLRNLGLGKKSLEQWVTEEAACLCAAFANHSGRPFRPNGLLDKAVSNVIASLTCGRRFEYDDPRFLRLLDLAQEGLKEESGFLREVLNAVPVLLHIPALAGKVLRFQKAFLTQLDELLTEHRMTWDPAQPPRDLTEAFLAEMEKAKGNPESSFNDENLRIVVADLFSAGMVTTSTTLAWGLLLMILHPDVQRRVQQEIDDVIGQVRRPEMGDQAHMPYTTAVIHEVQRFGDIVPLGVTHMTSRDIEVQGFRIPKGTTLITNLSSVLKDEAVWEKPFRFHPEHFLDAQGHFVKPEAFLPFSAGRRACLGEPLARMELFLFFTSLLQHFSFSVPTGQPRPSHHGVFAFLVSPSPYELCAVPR
Sequence of CYP3A5 (P20815 whole entry): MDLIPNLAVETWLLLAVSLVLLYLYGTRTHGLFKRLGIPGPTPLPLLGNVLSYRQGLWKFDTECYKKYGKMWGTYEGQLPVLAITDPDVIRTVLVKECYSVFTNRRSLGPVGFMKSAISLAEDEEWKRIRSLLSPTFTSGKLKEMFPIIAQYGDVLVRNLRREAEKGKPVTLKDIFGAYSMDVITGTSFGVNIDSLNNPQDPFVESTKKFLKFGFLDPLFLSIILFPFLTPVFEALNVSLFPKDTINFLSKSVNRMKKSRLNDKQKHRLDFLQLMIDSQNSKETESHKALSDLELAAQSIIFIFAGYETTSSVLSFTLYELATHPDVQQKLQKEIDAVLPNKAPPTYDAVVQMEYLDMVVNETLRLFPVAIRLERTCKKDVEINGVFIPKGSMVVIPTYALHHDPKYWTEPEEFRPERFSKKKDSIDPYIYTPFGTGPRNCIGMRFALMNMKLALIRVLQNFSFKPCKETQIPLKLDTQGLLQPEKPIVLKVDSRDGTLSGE
Sequence of Human FMO3 (P31513 whole entry): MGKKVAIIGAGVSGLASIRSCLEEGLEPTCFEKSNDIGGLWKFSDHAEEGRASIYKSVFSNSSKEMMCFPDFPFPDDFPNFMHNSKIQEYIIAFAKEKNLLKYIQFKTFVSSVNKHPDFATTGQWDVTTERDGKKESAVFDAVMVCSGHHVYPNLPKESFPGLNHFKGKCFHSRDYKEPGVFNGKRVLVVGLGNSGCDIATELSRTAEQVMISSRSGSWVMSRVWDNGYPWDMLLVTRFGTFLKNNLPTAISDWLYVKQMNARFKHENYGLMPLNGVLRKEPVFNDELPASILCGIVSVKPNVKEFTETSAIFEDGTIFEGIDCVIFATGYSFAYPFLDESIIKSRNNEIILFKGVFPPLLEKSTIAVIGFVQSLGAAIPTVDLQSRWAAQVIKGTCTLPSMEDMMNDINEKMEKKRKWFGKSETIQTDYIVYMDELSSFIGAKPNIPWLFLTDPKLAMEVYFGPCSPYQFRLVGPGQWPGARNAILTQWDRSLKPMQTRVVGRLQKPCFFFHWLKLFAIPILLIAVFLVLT
T2 sequence (P08684 whole entry): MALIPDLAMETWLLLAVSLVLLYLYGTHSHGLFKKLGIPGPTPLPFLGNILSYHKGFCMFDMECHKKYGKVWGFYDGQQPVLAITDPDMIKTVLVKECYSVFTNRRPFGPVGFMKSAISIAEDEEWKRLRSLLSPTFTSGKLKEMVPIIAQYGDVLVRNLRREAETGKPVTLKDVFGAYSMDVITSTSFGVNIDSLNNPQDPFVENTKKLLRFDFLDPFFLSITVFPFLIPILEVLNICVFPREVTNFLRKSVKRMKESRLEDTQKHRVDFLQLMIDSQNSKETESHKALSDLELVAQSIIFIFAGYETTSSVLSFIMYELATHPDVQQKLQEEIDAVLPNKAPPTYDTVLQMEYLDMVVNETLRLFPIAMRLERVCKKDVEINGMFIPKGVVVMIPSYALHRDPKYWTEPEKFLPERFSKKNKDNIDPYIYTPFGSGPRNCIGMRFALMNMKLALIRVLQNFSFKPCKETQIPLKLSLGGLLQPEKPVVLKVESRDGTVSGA
T3 sequence (Q12809 whole entry): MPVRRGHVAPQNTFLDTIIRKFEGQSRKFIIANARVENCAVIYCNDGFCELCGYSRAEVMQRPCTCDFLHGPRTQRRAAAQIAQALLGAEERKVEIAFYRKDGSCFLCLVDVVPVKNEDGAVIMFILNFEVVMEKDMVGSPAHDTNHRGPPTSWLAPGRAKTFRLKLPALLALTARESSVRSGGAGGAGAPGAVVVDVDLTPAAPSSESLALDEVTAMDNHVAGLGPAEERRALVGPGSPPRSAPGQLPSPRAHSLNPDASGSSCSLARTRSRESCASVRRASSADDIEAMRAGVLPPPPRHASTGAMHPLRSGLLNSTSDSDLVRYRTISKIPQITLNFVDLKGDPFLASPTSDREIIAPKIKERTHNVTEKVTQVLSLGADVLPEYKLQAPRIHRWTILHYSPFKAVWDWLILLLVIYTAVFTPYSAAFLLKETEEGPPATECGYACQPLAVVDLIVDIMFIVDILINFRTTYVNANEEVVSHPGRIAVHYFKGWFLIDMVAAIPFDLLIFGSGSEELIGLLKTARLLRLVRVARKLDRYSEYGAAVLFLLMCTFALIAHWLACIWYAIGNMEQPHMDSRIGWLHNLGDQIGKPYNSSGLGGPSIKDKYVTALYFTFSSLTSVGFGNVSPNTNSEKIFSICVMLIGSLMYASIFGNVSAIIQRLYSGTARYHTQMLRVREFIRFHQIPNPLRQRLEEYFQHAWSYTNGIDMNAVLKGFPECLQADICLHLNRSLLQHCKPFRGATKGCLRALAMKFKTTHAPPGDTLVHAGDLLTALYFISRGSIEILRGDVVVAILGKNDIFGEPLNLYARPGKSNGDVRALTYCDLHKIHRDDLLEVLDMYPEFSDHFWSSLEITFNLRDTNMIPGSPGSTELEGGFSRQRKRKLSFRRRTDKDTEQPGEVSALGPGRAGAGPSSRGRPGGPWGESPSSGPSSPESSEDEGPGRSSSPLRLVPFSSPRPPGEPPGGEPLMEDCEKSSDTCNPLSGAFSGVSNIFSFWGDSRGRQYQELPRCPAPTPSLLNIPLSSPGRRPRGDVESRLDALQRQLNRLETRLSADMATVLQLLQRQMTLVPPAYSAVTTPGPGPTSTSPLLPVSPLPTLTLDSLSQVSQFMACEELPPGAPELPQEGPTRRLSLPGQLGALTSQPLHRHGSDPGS

Cl.[2H]C(N)(COc1ccccc1C(F)(F)F)c1ccccc1 (stereo not shown) [Compound 104d]
LQT-EC50 (μM)-Shortening [1, 18]: shortens) | LQT-Fold Shortening [1, 18]: 1.395 | LQT-Shortening Dose [1, 18]: 22 µM | LQT-Cess. Dose [1]: 66 µM | WT-Prolong. Dose [2]: No AP | WT-Cess. Dose [2]: 22 µM | WT-EC50 (μM)-Prolong. [2]: No AP | Human FMO3 (nmol/incub) (Human FMO3): 0.7 nmol/incub | Human FMO1 (nmol/incub) (Human FMO1): 0.3 nmol/incub | Human CYP3A4 (nmol/incub) (CYP3A4 [3]): 0.3 nmol/incub

NC(COc1cc(C(F)(F)F)cc(C(F)(F)F)c1)c1ccccc1 (stereo not shown) [drawing 305]
% Metabolism Human S9 [4]: 41.1 ± 28.9% | % Metabolism Rat S9 [5]: 2.1 ± 1.4% | % Metabolism Dog S9 [6]: 25.6 ± 17.9% | % Metabolism Mouse S9 ([7]; 0.5 mg of protein): 11.6 ± 3.0%

COCCNC(COc1cc(C)cc(C)c1)c1ccccc1.Cl (stereo not shown) [Compound 69]
IC50 [8]: 5.1 µM | IC50 ([8]; Example 2): 5.1 µM | DNaP/Kr [9]: 7.5 | LQT-IC50 (uM)-Shortening ([1]; APD shortening, LQT3 cardiomyocytes): None | LQT-Fold Shortening ([1]; LQT3 cardiomyocytes): None | LQT-Shortening Dose ([1]; LQT3 cardiomyocytes): None | LQT-Cessation Dose ([1]; human, 5 min): 200 µM | behavioral/toxic effects at 200 mg/kg (Male BALBc mice; 200 mg/kg): slight lethargy | tolerability (Male BALBc mice; 30-100 mg/kg, 24 hr): well-tolerated | WT-Fold Prolongation ([2]; APD, normal hiPSC cardiomyocytes): None | Cessation of Beating ([2]; human, 5 min): 200 µM | WT-Prolongation Dose ([2]; normal hiPSC cardiomyocytes): None | solubility (in words) [10]: good solubility | IC50 [11]: 38.3 µM | DNap/NaL ([12]; ratio peak IC50/late IC50): 45.3 | DNap/NaL ([12]; ratio peak/late IC50, Example 2): 50.5

Cl.[2H]C(N)(COc1cc(C(F)(F)F)cc(C(F)(F)F)c1)c1ccccc1 (stereo not shown) [Compound 104a]
LQT-EC50 (μM)-Shortening [1, 18]: No AP | LQT-Fold Shortening [1, 18]: 1.274 | LQT-Shortening Dose [1, 18]: 22 µM | LQT-Cess. Dose [1]: 133 µM | action potential shortening compared to unlabeled compound ([1]; deuterium-labeled analogs): equal to or greater action potential shortening | WT-Prolong. Dose [2]: No AP | WT-Cess. Dose [2]: 66 µM | WT-EC50 (μM)-Prolong. [2]: No AP | Human FMO3 (nmol/incub) (Human FMO3): 0.6 nmol/incub | Human FMO1 (nmol/incub) (Human FMO1): 0.8 nmol/incub | Human CYP3A4 (nmol/incub) (CYP3A4 [3]): 1.1 nmol/incub

Cc1cc(C)cc(OCC(N)c2ccccc2)c1 (stereo not shown) [drawing 301]
half-life at 50 μM [13]: 59 min | half-life at 50 μM [14]: 104 min | half-life at 50 μM [15]: 184 min | half-life at 50 μM [16]: 52 min

Cl.NC(COc1ccccc1C(F)(F)F)c1ccccc1 (racemic) [Compound 82, 1-phenyl-2-(2-(trifluoromethyl)phenoxy)ethan-1-amine]
nmols metabolized, CYP3A5 (CYP3A5): 29.9 nmols | nmols/μg CYP, CYP3A5 (CYP3A5): 2.13 nmols/μg CYP | pmols product/μg CYP/min, CYP3A5 (CYP3A5): 42.6 pmols product/μg CYP/min | nmols metabolized, CYP3A4 (CYP3A4 [17]): 10.9 nmols | nmols/μg CYP, CYP3A4 (CYP3A4 [17]): 0.77 nmols/μg CYP | pmols product/μg CYP/min, CYP3A4 (CYP3A4 [17]): 15.4 pmols product/μg CYP/min | nmols metabolized, CYP2D6 (CYP2D6): 29.1 nmols | nmols/μg CYP, CYP2D6 (CYP2D6): 2.18 nmols/μg CYP | pmols product/μg CYP/min, CYP2D6 (CYP2D6): 43.6 pmols product/μg CYP/min

Cl.[2H]C(N)(COc1ccccc1C)c1ccccc1 (stereo not shown) [Compound 104c]
Human FMO3 (nmol/incub) (Human FMO3): 1.3 nmol/incub | Human FMO1 (nmol/incub) (Human FMO1): 1.4 nmol/incub | Human CYP3A4 (nmol/incub) (CYP3A4 [3]): 1.0 nmol/incub | Mouse liver S-9 (nmol/incub) ([7]; 0.4 mg protein/incubation, 30 mins, 37° C., nmol metabolism/incubation): 13.2 nmol/incub

Source: patent US11492325B2, “Compounds as inhibitors of sodium channels” (Human BioMolecular Research Institute, priority 2016, dated 2022)
